# Source: US20110039779A1, “IGF-1R BINDING PROTEINS AND ANTAGONISTS” (priority 2007, published 2011)
# Read-outs that look alike come from different tables or passages of the source. Where a SMILES comes first, the peptide text is derived from it.
# Legend:
# [1] = biological target: T1, HIGF-1R (Homo sapiens, UniProt P08069); assay: IGF-1R affinity, scintillation proximity assay (SPA assay), 125I-IGF1 displacement; assay type: binding
# T1 construct: HIGF-1R was purified from a cell culture of BHK cells stably transfected with IGF-1R cDNA; made in house; host or cells: BHK cells stably transfected with IGF-1R cDNA
# Source text: In certain cases, a scintillation proximity assay (SPA assay) was used to determine IGF-1R affinity.
# [2] = biological target: MCF7 cells (Homo sapiens, UniProt P08069); assay: antagonism assay in starved MCF7 cells, luminescence viability, 72 hrs; assay type: cell-based; conditions: Table 9
# Method: Additional binding and antagonism assays using candidate peptides were performed. […] Cell viability was determined by luminescence assay and IC50 was calculated using standard techniques.
# [3] = test system: PKB/Akt; assay: downstream signaling in L6 cells: PKB/Akt; assay type: cell-based; conditions: 3 nM IGF-1, read-out: PKB/Akt, IC50 for down regulation of the stimulation to the basal level
# Method: (§1) The tyrosine phosphorylation of IRS signaling (the 180 kDa band on a tyrosine phosphor Western blot) as well as activation of effectors MAPK 44 and 42 and PKB were analyzed by using antibodies specific for their active forms using methods substantially similar to those described in Example 14 of the '246 PCT application.
# (§2) The effect of select peptides on downstream signaling (MAPK44, MAPK42, PKB/Akt, IRS-1, and IGF-1R) was also measured by studying the signaling in L6 cells predominantly expressing IGF-1R and very limited insulin receptors. […] The antagonistic effect of the peptides can be seen to affect all the downstream signaling from the IGF-1R.
# [4] = test system: MAPK44; assay: downstream signaling in L6 cells: MAPK44; assay type: cell-based; conditions: 3 nM IGF-1, read-out: MAPK44, IC50 for down regulation of the stimulation to the basal level
# Method: as §1, §2
# [5] = test system: MiaPaCa cells; assay: MiaPaCa tumor growth inhibition in nude mice; assay type: in vivo
# Method: Nude mice were inoculated with MiaPaCa cells (one million cells in matrigel) on the flank and followed until tumors reached a volume of greater than 100 mm^3. […] Animals were injected by the subcutaneous route 4 times per week for 3 weeks and followed for an additional 2 weeks without injections. Tumors were measured twice weekly. Animals were sacrificed and the tumors excised, weighed and photographed.
# [6] = test system: SW480 cells; assay type: cell-based; conditions: for IC50: read-out: IC50, inhibition of IGF-1 (10 nM)-induced proliferation of SW480 cells
# Method: For cell growth/density studies, a mitochondrial activity assay was used, as exemplified by the following. Cells (SW480, MCF-7S8) were propagated in complete medium (DME: F12, 10% FCS (SW 480) or 5% FCS (MCF-7S8, P/S)), trypsinized, and seeded in 96 well plates as 10,000 cells/well in medium with 0.5% FCS. All wells in the periphery were omitted and only filled with medium. […] All treatments are made in triplicates. […] Treatment was continued for 48 hours (SW480 cells) or 72 hours (MCF-7S8 cells) before quantification of the cell density. Media was exchanged each day. Media and peptides were diluted in DMSO. When measuring cell density, the volume of each well was adjusted to […] Pre-diluted WST-1 (1 ml+1.5 ml DME:F12) was added as 25 μL to each well including background samples. Three wells with media only served as background controls. The cells were incubated for 90 min protected against light in an incubator.
# [7] = test system: MAPK42; assay: downstream signaling in L6 cells: MAPK42; assay type: cell-based; conditions: 3 nM IGF-1, read-out: MAPK42, IC50 for down regulation of the stimulation to the basal level
# Method: as §1, §2
# [8] = test system: IRS-1; assay: downstream signaling: IRS-1 tyrosine phosphorylation; assay type: cell-based; conditions: for IC50: L6 cells, 3 nM IGF-1, read-out: IRS-1, IC50 for down regulation of the stimulation to the basal level
# Method: as §1, §2
# [9] = test system: IGF-IR; assay: downstream signaling in L6 cells: IGF-IR; assay type: cell-based; conditions: 3 nM IGF-1, read-out: IGF-IR, IC50 for down regulation of the stimulation to the basal level
# Method: as §1, §2
# [10] = test system: MiaPaCa cells; assay: gene expression changes in MiaPaCa cells (gene arrays); assay type: cell-based, human; conditions: IGF-1 (25 ng/ml) +/− ANT-429, 24 hours
# [11] = biological target: human insulin receptor (HIR) (Homo sapiens, UniProt P06213); assay: human insulin receptor (HIR) affinity; assay type: binding; conditions: printed in brackets under the HIR affinity, not explained
# Method: IGF-1R affinity studies were generally performed as follows. […] HIGF-1R was purified from a cell culture of BHK cells stably transfected with IGF-1R cDNA. The day before harvest cells were moved to serum free conditions and before harvest the cells were rinsed with and ice cold PBS solution. The cells were solubilized in cold lysis buffer (4 ml lysis buffer/1×10^8 cells); vortexed vigorously to lysis in lysis buffer (50 mM Hepes (pH 8.0); 150 mM NaCl; 1% Triton X-100; 2 mM EDTA; 10 μg/mlaprotinin; 0.5 mM PEFABLOC (Roche)); and the lysate centrifuged at 4° C., 20000 rpm, for 15 minutes. The HIGF-1R portion was absorbed to WGA-agarose beads and subjected to chromatography purification (Pharmacia biotech No 17-0760-01) (column washed with 20× column volumes wash buffer −50 mM Hepes (pH 8.0); 150 mM NaCl; 0.1% Triton X-100; 0.5 mM PEFABLOC (Roche)). The HIGF-1R portion was then eluted with 0.5 M n-Acetyl Glycosamine (NAG), 10% Glycerol in elution buffer (50 mM Hepes (pH 8.0); 150 mM NaCl; 0.1% Triton X-100; 0.5 mM PEFABLOC (Roche); 0.5 M n-acetyl glucosamine; 10% glycerol). […] After equilibration for 2 days at 4° C., each sample (200 μl) typically was precipitated by addition of 400 μl 25% PEG 6000, centrifuged, washed with 1 ml 15% PEG 6000, and counted in a gamma-counter. In some cases, human insulin receptor (HIR) affinity for select test peptides was similarly measured.
# [12] = biological target: T2, IGF-1R on L6 (with mainly symmetric IGF-1R) (Rattus norvegicus, UniProt P24062); assay: displacement of IGF-1 binding on L6 cells
# T2 construct: L6 cells predominantly expressing IGF-1R and very limited insulin receptors; endogenous in cells; host or cells: L6 cells
# [13] = test system: insulin receptor/IGF-1R; assay: tyrosine phosphorylation of insulin receptor/IGF-1R in L6-hIR cells (Western blot); assay type: cell-based
# [14] = test system: SGBS adipocytes transfected with HIR-encoding DNA; assay: 3H glucose incorporation (insulin agonist activity) in SGBS adipocytes; assay type: cell-based
# Method: Insulin increases uptake of ^3H glucose into adipocytes and its conversion into lipid. Incorporation of ^3H into the lipid phase was determined by partitioning of lipid phase into a scintillant mixture, which excludes water-soluble ^3H products. […] The results are expressed as increase relative to full insulin response.
# Chain of human insulin receptor (HIR) (P06213 28-758 limits assumed): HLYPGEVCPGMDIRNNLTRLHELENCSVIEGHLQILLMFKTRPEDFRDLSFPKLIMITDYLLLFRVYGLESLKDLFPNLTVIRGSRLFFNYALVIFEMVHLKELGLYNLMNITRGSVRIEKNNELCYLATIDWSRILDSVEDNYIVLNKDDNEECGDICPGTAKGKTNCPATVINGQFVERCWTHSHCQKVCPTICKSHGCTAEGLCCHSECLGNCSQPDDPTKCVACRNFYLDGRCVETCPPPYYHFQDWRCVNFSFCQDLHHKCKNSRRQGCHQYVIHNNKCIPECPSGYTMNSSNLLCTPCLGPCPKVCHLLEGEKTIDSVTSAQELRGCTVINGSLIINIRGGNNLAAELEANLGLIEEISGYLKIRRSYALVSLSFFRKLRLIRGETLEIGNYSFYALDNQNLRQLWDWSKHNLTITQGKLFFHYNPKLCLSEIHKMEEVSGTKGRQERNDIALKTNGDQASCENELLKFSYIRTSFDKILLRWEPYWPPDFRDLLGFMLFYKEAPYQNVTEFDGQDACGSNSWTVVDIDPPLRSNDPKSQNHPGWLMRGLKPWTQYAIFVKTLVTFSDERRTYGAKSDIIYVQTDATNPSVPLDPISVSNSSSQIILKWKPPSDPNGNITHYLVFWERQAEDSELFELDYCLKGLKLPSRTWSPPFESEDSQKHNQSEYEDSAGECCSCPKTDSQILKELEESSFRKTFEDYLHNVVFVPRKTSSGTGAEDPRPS
# Chain of human insulin receptor (HIR) (P06213 763-1382 limits assumed): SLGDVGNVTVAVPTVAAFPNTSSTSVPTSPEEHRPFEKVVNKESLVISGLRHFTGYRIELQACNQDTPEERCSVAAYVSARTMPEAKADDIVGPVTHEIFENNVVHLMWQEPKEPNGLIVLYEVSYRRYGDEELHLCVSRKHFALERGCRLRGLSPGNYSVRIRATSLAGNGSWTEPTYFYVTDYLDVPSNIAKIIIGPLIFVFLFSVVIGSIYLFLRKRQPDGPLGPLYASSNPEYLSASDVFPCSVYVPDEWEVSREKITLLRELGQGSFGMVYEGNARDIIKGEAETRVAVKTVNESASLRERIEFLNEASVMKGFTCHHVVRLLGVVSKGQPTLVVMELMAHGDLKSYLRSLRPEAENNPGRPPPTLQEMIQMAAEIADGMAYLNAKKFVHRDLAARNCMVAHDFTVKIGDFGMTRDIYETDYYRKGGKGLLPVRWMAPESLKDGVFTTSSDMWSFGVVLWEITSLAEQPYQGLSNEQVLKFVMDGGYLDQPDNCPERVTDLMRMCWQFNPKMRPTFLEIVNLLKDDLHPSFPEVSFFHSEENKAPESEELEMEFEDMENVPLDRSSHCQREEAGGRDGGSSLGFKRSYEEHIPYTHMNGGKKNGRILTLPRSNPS
# T2 sequence (P24062 31-737 limits assumed): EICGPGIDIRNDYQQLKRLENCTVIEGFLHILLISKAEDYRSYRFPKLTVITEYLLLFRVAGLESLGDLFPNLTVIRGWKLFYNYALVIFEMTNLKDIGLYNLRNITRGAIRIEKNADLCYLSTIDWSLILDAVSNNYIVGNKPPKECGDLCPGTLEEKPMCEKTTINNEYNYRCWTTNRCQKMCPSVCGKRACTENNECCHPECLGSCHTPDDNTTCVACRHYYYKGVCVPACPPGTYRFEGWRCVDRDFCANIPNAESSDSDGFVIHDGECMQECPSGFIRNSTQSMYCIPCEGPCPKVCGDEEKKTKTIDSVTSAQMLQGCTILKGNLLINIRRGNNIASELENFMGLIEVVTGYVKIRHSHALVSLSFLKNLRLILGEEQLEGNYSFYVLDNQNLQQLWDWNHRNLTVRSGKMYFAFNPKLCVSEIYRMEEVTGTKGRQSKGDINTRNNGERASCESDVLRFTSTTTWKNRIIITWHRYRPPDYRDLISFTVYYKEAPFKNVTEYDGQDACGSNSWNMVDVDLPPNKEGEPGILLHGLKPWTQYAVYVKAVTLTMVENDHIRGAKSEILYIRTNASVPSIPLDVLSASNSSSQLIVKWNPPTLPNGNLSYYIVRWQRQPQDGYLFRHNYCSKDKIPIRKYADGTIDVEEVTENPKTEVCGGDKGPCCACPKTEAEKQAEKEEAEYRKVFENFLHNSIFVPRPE
# T2 sequence (P24062 742-1370 limits assumed): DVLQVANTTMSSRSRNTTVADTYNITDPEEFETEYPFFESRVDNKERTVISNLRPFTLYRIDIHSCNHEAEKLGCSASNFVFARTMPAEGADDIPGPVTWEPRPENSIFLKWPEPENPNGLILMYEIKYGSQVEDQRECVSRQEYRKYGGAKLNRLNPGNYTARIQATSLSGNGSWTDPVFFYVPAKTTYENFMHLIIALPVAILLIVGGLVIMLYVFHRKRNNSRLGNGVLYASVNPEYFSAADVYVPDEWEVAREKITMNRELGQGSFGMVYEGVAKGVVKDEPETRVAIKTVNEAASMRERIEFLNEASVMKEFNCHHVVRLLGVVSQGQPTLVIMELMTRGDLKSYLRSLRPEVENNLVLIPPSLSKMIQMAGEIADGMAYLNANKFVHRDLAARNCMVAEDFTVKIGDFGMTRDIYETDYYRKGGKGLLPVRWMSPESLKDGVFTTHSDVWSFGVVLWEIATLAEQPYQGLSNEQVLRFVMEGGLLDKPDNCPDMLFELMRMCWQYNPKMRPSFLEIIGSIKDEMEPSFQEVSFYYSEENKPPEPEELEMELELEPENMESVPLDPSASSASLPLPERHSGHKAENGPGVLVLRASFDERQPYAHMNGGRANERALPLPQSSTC
# Chain of MCF7 cells (P08069 31-736): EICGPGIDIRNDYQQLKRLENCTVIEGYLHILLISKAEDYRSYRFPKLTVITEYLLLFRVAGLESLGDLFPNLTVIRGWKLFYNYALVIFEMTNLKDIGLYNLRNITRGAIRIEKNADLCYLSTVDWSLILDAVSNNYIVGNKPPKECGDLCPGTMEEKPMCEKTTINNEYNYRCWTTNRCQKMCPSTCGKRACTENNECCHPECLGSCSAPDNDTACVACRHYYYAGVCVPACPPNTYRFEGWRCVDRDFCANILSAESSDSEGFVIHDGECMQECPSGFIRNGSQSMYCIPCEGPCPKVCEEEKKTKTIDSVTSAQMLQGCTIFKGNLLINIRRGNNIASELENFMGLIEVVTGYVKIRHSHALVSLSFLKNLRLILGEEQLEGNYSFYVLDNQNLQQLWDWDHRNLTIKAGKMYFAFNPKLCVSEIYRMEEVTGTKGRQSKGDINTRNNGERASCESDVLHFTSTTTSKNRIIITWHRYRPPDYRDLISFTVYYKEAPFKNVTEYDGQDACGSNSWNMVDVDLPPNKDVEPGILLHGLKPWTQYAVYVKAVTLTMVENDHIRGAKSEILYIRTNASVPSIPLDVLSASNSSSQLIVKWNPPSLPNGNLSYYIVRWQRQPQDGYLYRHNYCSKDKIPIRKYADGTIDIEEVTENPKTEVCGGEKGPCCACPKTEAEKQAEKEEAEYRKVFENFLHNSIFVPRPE
# T1 sequence (P08069 31-736 limits assumed): as the sequence (P08069 31-736) above
# T1 sequence (P08069 741-1367 limits assumed): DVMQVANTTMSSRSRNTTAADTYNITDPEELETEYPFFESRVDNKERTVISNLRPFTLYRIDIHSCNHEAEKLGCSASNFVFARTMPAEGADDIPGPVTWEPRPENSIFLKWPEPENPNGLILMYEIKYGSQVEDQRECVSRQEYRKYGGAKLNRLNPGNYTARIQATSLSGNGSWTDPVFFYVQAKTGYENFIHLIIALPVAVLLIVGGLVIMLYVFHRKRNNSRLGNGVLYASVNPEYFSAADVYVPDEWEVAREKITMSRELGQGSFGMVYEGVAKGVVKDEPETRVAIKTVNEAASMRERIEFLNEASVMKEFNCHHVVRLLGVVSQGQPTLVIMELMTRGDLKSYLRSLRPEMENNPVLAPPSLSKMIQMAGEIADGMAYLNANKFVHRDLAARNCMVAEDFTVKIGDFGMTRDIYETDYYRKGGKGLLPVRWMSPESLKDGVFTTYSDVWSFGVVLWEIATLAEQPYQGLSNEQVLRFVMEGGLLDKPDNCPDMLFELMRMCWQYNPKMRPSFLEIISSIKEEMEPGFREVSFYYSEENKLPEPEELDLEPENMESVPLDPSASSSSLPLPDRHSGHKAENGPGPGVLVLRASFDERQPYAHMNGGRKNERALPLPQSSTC
compound,measurement,setting,value
CC(C)C[C@H](NC(=O)[C@H](CCC(=O)O)NC(=O)[C@H](CCC(=O)O)NC(=O)[C@H](CS)NC(=O)[C@H](CO)NC(=O)[C@H](Cc1ccc(O)cc1)NC(=O)[C@H](Cc1ccccc1)NC(=O)[C@@H](N)CO)C(=O)N[C@H](C(=O)N[C@@H](CCC(N)=O)C(=O)NCC(=O)N1CCC[C@H]1C(=O)N[C@@H](C)C(=O)N[C@@H](CCC(=O)O)C(=O)N[C@@H](CCCCN)C(=O)N[C@@H](CO)C(=O)N[C@@H](CCCCN)C(=O)NCC(=O)N[C@@H](CCC(N)=O)C(=O)N[C@@H](Cc1c[nH]c2ccccc12)C(=O)N[C@@H](CCC(=O)O)C(=O)NCC(=O)N[C@@H](CS)C(=O)N[C@@H](CCCCN)C(=O)N[C@@H](CCCCN)C(=O)O)C(C)C [Peptide F370] (H-SFYSCEELVQGPAEKSKGQWEGCKK-OH),Kd,[1],23000 nM
DFYGCLLDLSLGVPSLGWRRRCITA [Peptide F429],Activity,[2],Antagonist
same,IC50,[3],100 nM
same,IC50,[4],100 nM
same,"complete remission, animals",[5]; […] (50 ug/injection),one
same,animals responding to treatment,"[5]; […] (50 ug/injection), subcutaneous 4 times per week for 3 weeks",Two out of five
same,tumor growth,"[5]; group printed as 15 mg/kg (design: 300 ug/injection, 12 mg/kg), subcutaneous 4 times per week for 3 weeks",significant inhibition of growth
same,"complete remission, animals","[5]; group printed as 15 mg/kg, subcutaneous 4 times per week for 3 weeks",one
same,IC50,[6]; experiment 13717-019,500 nM
same,IC50,[6]; experiment 13717-027,1000 nM
same,IC50,[7],300 nM
same,potency for inhibiting down stream signaling through IRS-1 upon IGF-1 stimulation,"[8]; +/−3 nM IGF-1, FIG. 7 and FIG. 8",potency of F429 is higher than F138
same,IC50,[8],40 nM
same,IC50,[9],50 nM
same,changes in apoptosis gene expression,[10],modulate apoptosis genes
QFYGCLLDLSLGVPSFGWRRRCITA [Peptide F138],"HIR affinity, value in brackets",[11],(0.013%)
same,IC50 in SW480 (M) in presence of IGF-1/alone: in presence of IGF-1,"[6]; first value of the cell: concentration needed to blunt the effect of 10 nM IGF-1, cells in words only = effect as reported, 48 hours",Antagonistic
same,"inhibition of basal growth of SW480, doses",[6]; without IGF-1,> 100 nM
same,IC50,[7],300 nM
same,IC50,[8],300 nM
same,concentration displacing IGF-1 binding to IGF-1R on L6,[12],100 nM
same,inhibition of IGF-1 induced versus insulin induced phosphorylation,[13],Some selectivity for inhibiting IGF-1 induced tyrosine phosphorylation as compared to insulin induced phosphorylation
same,effect on glucose uptake induced by insulin or IGF-1,"[14]; SGBS adipocytes, FIGS. 1A and 1B",neither peptide F138 nor peptide F293 has any substantial effect on glucose uptake induced by insulin or IGF-1
same,doses not affecting glucose uptake in response to insulin/IGF-1,[14]; SGBS cells,< 5 µM
